From patent publication US20060069132A1, “Azolecarboxamide herbicides” (priority 2004, published 2006)
Read-outs that look alike come from different tables or passages of the source.

What was measured:
ducksalad = experiment: Test C flooded paddy test; format: in vivo, Heteranthera limosa
[1] = tested on: smallflower umbrella sedge; experiment: Test C flooded paddy test; format: in vivo, Cyperus difformis
giant foxtail = experiment: Test A pre-/postemergence herbicide test; format: in vivo, Setaria faberi; details: for pest or weed control at 500 g/ha / pest or weed control at 2000 g/ha: Setaria faberi, 240 h
Procedure, shortened: (§1)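 Greenhouse injury scoring (0–100, complete control = 100) at approximately ten days follows simultaneous pre- and postemergence application. Soil received a directed spray after seeding; seedlings of 2–10 cm at the one- to two-leaf stage were sprayed to runoff.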

redroot pigweed = experiment: Test A pre-/postemergence herbicide test; format: in vivo, Amaranthus retroflexus; details: for pest or weed control at 500 g/ha / pest or weed control at 2000 g/ha: Amaranthus retroflexus, 240 h
Procedure, shortened: as §1

barnyardgrass = experiment: Test A pre-/postemergence herbicide test; format: in vivo, Echinochloa crus-galli; details: for pest or weed control at 500 g/ha / pest or weed control at 2000 g/ha: Echinochloa crus-galli, 240 h
Procedure, shortened: as §1

[2] = 62 g ai/ha, scale 0 to 100 (0 no effect, 100 complete control)
[3] = 125 g ai/ha, scale of 0 to 100, 0 is no effect, 100 is complete control
[4] = 250 g ai/ha, scale of 0 to 100, 0 is no effect, 100 is complete control
[5] = 500 g ai/ha, visual rating after 12 to 14 days, scale 0 to 100 (0 no effect, 100 complete control)
[6] = Postemergence, 500 g ai/ha, 0 to 100 scale, 0 no effect, 100 complete control
[7] = Postemergence, 2000 g ai/ha, 0 to 100 scale, 0 no effect, 100 complete control
[8] = Preemergence, 500 g ai/ha, visual rating, 0 to 100 scale (0 no effect, 100 complete control)
[9] = Preemergence, 2000 g ai/ha, 0 to 100 scale, 0 no effect, 100 complete control
[10] = Preemergence, 2000 g ai/ha, visual rating, 0 to 100 scale (0 no effect, 100 complete control)
[11] = 125 g ai/ha, scale 0 to 100 (0 no effect, 100 complete control)
[12] = preemergence, 500 g ai/ha, visual injury, 0 to 100 scale (0 no effect, 100 complete control)

SMILES: CCn1nc(C(C)(C)C)cc1C(=O)Nc1cccc(C(=O)NCC(F)(F)F)c1 [Compound 43, 3-(1,1-dimethylethyl)-1-ethyl-N-[3-[[(2,2,2-trifluoroethyl)amino]carbonyl]-phenyl]-1H-pyrazole-5-carboxamide]
- pest or weed control at 62 g/ha (ducksalad; Heteranthera limosa, 62 g ai/ha, scale 0 to 100 (0 no effect, 100 complete control), read-out: Ducksalad plant response rating): 0%
- pest or weed control at 125 g/ha (ducksalad; Heteranthera limosa, 125 g ai/ha, scale of 0 to 100, 0 is no effect, 100 is complete control, read-out: Ducksalad plant response rating): 0%
- pest or weed control at 250 g/ha (ducksalad; Heteranthera limosa, 250 g ai/ha, visual rating after 12 to 14 days, scale 0 to 100 (0 no effect, 100 complete control), read-out: Plant response rating, Ducksalad): 60%
- pest or weed control at 500 g/ha (ducksalad; Heteranthera limosa, 500 g ai/ha, visual rating after 12 to 14 days, scale 0 to 100 (0 no effect, 100 complete control), read-out: Plant response rating, Ducksalad): 70%
- pest or weed control at 62 g/ha ([1]; Cyperus difformis, 62 g ai/ha, scale 0 to 100 (0 no effect, 100 complete control), read-out: Sedge, Umbrella plant response rating): 30%
- pest or weed control at 125 g/ha ([1]; Cyperus difformis, 125 g ai/ha, scale of 0 to 100, 0 is no effect, 100 is complete control, read-out: Sedge, Umbrella plant response rating): 50%
- pest or weed control at 250 g/ha ([1]; Cyperus difformis, 250 g ai/ha, visual rating after 12 to 14 days, scale 0 to 100 (0 no effect, 100 complete control), read-out: Plant response rating, Sedge, Umbrella): 70%
- pest or weed control at 500 g/ha ([1]; Cyperus difformis, 500 g ai/ha, visual rating after 12 to 14 days, scale 0 to 100 (0 no effect, 100 complete control), read-out: Plant response rating, Sedge, Umbrella): 80%
- pest or weed control at 500 g/ha (giant foxtail; post-emergence, Postemergence, 500 g ai/ha, 0 to 100 scale, 0 no effect, 100 complete control, read-out: Plant response rating, Foxtail, Giant): 70%
- pest or weed control at 2000 g/ha (giant foxtail; post-emergence, Postemergence, 2000 g ai/ha, 0 to 100 scale, 0 no effect, 100 complete control, read-out: Plant response rating, Foxtail, Giant): 70%
- pest or weed control at 500 g/ha (giant foxtail; pre-emergence, Preemergence, 500 g ai/ha, visual rating, 0 to 100 scale (0 no effect, 100 complete control), read-out: Foxtail, Giant plant response rating): 55%
- pest or weed control at 2000 g/ha (giant foxtail; pre-emergence, Preemergence, 2000 g ai/ha, 0 to 100 scale, 0 no effect, 100 complete control, read-out: Foxtail, Giant plant response rating): 100%
- pest or weed control at 500 g/ha (redroot pigweed; post-emergence, Postemergence, 500 g ai/ha, 0 to 100 scale, 0 no effect, 100 complete control, read-out: Plant response rating, Pigweed): 100%
- pest or weed control at 2000 g/ha (redroot pigweed; post-emergence, Postemergence, 2000 g ai/ha, 0 to 100 scale, 0 no effect, 100 complete control, read-out: Plant response rating, Pigweed): 100%
- pest or weed control at 500 g/ha (redroot pigweed; pre-emergence, Preemergence, 500 g ai/ha, visual rating, 0 to 100 scale (0 no effect, 100 complete control), read-out: Pigweed plant response rating): 100%
- pest or weed control at 2000 g/ha (redroot pigweed; pre-emergence, Preemergence, 2000 g ai/ha, 0 to 100 scale, 0 no effect, 100 complete control, read-out: Pigweed plant response rating): 100%
- pest or weed control at 500 g/ha (barnyardgrass; post-emergence, Postemergence, 500 g ai/ha, 0 to 100 scale, 0 no effect, 100 complete control, read-out: Plant response rating, Barnyardgrass): 90%
- pest or weed control at 2000 g/ha (barnyardgrass; post-emergence, Postemergence, 2000 g ai/ha, 0 to 100 scale, 0 no effect, 100 complete control, read-out: Plant response rating, Barnyardgrass): 100%
- pest or weed control at 500 g/ha (barnyardgrass; pre-emergence, Preemergence, 500 g ai/ha, visual rating, 0 to 100 scale (0 no effect, 100 complete control), read-out: Barnyardgrass plant response rating): 60%
- pest or weed control at 2000 g/ha (barnyardgrass; pre-emergence, Preemergence, 2000 g ai/ha, 0 to 100 scale, 0 no effect, 100 complete control, read-out: Barnyardgrass plant response rating): 90%

SMILES: CCn1nc(C(C)(C)C)cc1C(=O)Nc1cccc(C(=O)NOC)c1 [Compound 67]
- Ducksalad plant response rating (ducksalad; [2]): 30
- Ducksalad plant response rating (ducksalad; [3]): 30
- Ducksalad plant response rating (ducksalad; [4]): 40
- Plant response rating, Ducksalad (ducksalad; [5]): 40
- Sedge, Umbrella plant response rating [1, 2]: 50
- Sedge, Umbrella plant response rating [1, 3]: 50
- Sedge, Umbrella plant response rating [1, 4]: 75
- Plant response rating, Sedge, Umbrella [1, 5]: 75
- Plant response rating, Foxtail, Giant (giant foxtail; [6]): 10
- Plant response rating, Foxtail, Giant (giant foxtail; [7]): 20
- Foxtail, Giant plant response rating (giant foxtail; [8]): 0
- Foxtail, Giant plant response rating (giant foxtail; [9]): 30
- Plant response rating, Pigweed (redroot pigweed; [6]): 50
- Plant response rating, Pigweed (redroot pigweed; [7]): 85
- Pigweed plant response rating (redroot pigweed; [8]): 0
- Pigweed plant response rating (redroot pigweed; [9]): 90
- Plant response rating, Barnyardgrass (barnyardgrass; [6]): 0
- Plant response rating, Barnyardgrass (barnyardgrass; [7]): 25
- Barnyardgrass plant response rating (barnyardgrass; [8]): 0
- Barnyardgrass plant response rating (barnyardgrass; [9]): 30

SMILES: CCOC(=O)c1cccc(NC(=O)c2cc(C(C)(C)C)nn2CCF)c1 [Compound 79]
- Ducksalad plant response rating (ducksalad; [2]): 0
- Ducksalad plant response rating (ducksalad; [3]): 0
- Ducksalad plant response rating (ducksalad; [4]): 15
- Plant response rating, Ducksalad (ducksalad; [5]): 55
- Sedge, Umbrella plant response rating [1, 2]: 75
- Sedge, Umbrella plant response rating [1, 3]: 75
- Sedge, Umbrella plant response rating [1, 4]: 80
- Plant response rating, Sedge, Umbrella [1, 5]: 85
- Plant response rating, Foxtail, Giant (giant foxtail; [6]): 30
- Plant response rating, Foxtail, Giant (giant foxtail; [7]): 40
- Foxtail, Giant plant response rating (giant foxtail; [8]): 10
- Foxtail, Giant plant response rating (giant foxtail; [9]): 40
- Plant response rating, Pigweed (redroot pigweed; [6]): 95
- Plant response rating, Pigweed (redroot pigweed; [7]): 85
- Pigweed plant response rating (redroot pigweed; [8]): 45
- Pigweed plant response rating (redroot pigweed; [9]): 90
- Plant response rating, Barnyardgrass (barnyardgrass; [6]): 40
- Plant response rating, Barnyardgrass (barnyardgrass; [7]): 40
- Barnyardgrass plant response rating (barnyardgrass; [8]): 20
- Barnyardgrass plant response rating (barnyardgrass; [9]): 35

SMILES: C=CCn1nc(C(C)(C)C)cc1C(=O)Nc1cccc(C(C)=NO)c1 [Compound 117]
- Ducksalad plant response rating (ducksalad; [2]): 0
- Ducksalad plant response rating (ducksalad; [3]): 0
- Ducksalad plant response rating (ducksalad; [4]): 0
- Plant response rating, Ducksalad (ducksalad; [5]): 60
- Sedge, Umbrella plant response rating [1, 2]: 40
- Sedge, Umbrella plant response rating [1, 3]: 55
- Sedge, Umbrella plant response rating [1, 4]: 75
- Plant response rating, Sedge, Umbrella [1, 5]: 80
- Foxtail, Giant plant response rating (giant foxtail; [6]): 35
- Plant response rating, Foxtail, Giant (giant foxtail; [7]): 55
- Foxtail, Giant plant response rating (giant foxtail; [8]): 25
- Foxtail, Giant plant response rating (giant foxtail; [10]): 60
- Pigweed plant response rating (redroot pigweed; [6]): 80
- Plant response rating, Pigweed (redroot pigweed; [7]): 95
- Pigweed plant response rating (redroot pigweed; [8]): 55
- Pigweed plant response rating (redroot pigweed; [10]): 90
- Barnyardgrass plant response rating (barnyardgrass; [6]): 45
- Plant response rating, Barnyardgrass (barnyardgrass; [7]): 75
- Barnyardgrass plant response rating (barnyardgrass; [8]): 30
- Barnyardgrass plant response rating (barnyardgrass; [10]): 70

SMILES: CCn1nc(C(C)(C)C)cc1C(=O)Nc1cccc(OC(C)C)c1 [Compound 273]
- Ducksalad plant response rating (ducksalad; 62 g ai/ha, scale 0 to 100): 20
- Ducksalad plant response rating (ducksalad; [11]): 50
- Ducksalad plant response rating (ducksalad; [4]): 75
- Plant response rating, Ducksalad (ducksalad; [5]): 75
- Sedge, Umbrella plant response rating ([1]; 62 g ai/ha, scale 0 to 100): 70
- Sedge, Umbrella plant response rating [1, 11]: 75
- Sedge, Umbrella plant response rating [1, 4]: 75
- Plant response rating, Sedge, Umbrella [1, 5]: 75
- Foxtail, Giant plant response rating (giant foxtail; [6]): 50
- Plant response rating, Foxtail, Giant (giant foxtail; [7]): 70
- Foxtail, Giant plant response rating (giant foxtail; [10]): 100
- Foxtail, Giant plant response rating (giant foxtail; [12]): 85
- Pigweed plant response rating (redroot pigweed; [6]): 100
- Plant response rating, Pigweed (redroot pigweed; [7]): 100
- Pigweed plant response rating (redroot pigweed; [10]): 100
- Pigweed plant response rating (redroot pigweed; [12]): 100
- Barnyardgrass plant response rating (barnyardgrass; [6]): 55
- Plant response rating, Barnyardgrass (barnyardgrass; [7]): 75
- Barnyardgrass plant response rating (barnyardgrass; [10]): 95
- Barnyardgrass plant response rating (barnyardgrass; [12]): 70

SMILES: CCn1nc(C(C)(C)C)cc1C(=O)Nc1cccc(C(=O)N2CC=CC2)c1 [Compound 286]
- Ducksalad plant response rating (ducksalad; 62 g ai/ha, scale 0 to 100): 50
- Ducksalad plant response rating (ducksalad; [11]): 75
- Ducksalad plant response rating (ducksalad; [4]): 90
- Plant response rating, Ducksalad (ducksalad; [5]): 90
- Sedge, Umbrella plant response rating ([1]; 62 g ai/ha, scale 0 to 100): 30
- Sedge, Umbrella plant response rating [1, 11]: 70
- Sedge, Umbrella plant response rating [1, 4]: 90
- Plant response rating, Sedge, Umbrella [1, 5]: 90
- Foxtail, Giant plant response rating (giant foxtail; [6]): 35
- Plant response rating, Foxtail, Giant (giant foxtail; [7]): 75
- Foxtail, Giant plant response rating (giant foxtail; [10]): 100
- Foxtail, Giant plant response rating (giant foxtail; [12]): 60
- Pigweed plant response rating (redroot pigweed; [6]): 55
- Plant response rating, Pigweed (redroot pigweed; [7]): 85
- Pigweed plant response rating (redroot pigweed; [10]): 95
- Pigweed plant response rating (redroot pigweed; [12]): 85
- Barnyardgrass plant response rating (barnyardgrass; [6]): 60
- Plant response rating, Barnyardgrass (barnyardgrass; [7]): 80
- Barnyardgrass plant response rating (barnyardgrass; [10]): 85
- Barnyardgrass plant response rating (barnyardgrass; [12]): 75
